Read-outs that look alike come from different tables or passages of the source.
Experiments:
Test in all cases: biochemical
BMPR2 = BMPR2 (Homo sapiens, UniProt Q13873)
BRSK2 = BRSK2 (Homo sapiens, UniProt Q8IWQ3)
CAMK1 = CAMK1 (Homo sapiens, UniProt Q14012)
CAMK2D = CAMK2D (Homo sapiens, UniProt Q13557)
CAMKK2 = CAMKK2 (Homo sapiens, UniProt Q96RR4)
CDK9 = CDK9 (Homo sapiens, UniProt P50750)
CDKL1 = CDKL1 (Homo sapiens, UniProt Q00532)
CLK2 = CLK2 (Homo sapiens, UniProt P49760)
CLK3 = CLK3 (Homo sapiens, UniProt P49761)
CSNK1D = CSNK1D (Homo sapiens, UniProt P48730)
CSNK1G2 = CSNK1G2 (Homo sapiens, UniProt P78368)
DAPK1 = DAPK1 (Homo sapiens, UniProt P53355)
DCAMKL2 = DCAMKL2 (Homo sapiens, UniProt Q8N568)
DDR2 = DDR2 (Homo sapiens, UniProt Q16832)
ITK = ITK (Homo sapiens, UniProt Q08881)
JNK3 = JNK3 (Homo sapiens, UniProt P53779)
LATS2 = LATS2 (Homo sapiens, UniProt Q9NRM7)
LRRK2 = LRRK2 (Homo sapiens, UniProt Q5S007)
MARK2 = MARK2 (Homo sapiens, UniProt Q7KZI7)
MEK5 = MEK5 (Homo sapiens, UniProt Q13163)
[1] = target: ABL1(H396P)-phosphorylated (Homo sapiens, UniProt P00519, H396P)
ABL1-phosphorylated = ABL1-phosphorylated (Homo sapiens, UniProt P00519)
[2] = target: ABL1(F317I)-nonphosphorylated (Homo sapiens, UniProt P00519, F317I)
[3] = target: ABL1(F317L)-nonphosphorylated (Homo sapiens, UniProt P00519, F317L)
[4] = target: ABL1(T315I)-nonphosphorylated (Homo sapiens, UniProt P00519, T315I)
[5] = target: JAK1(JH1domain-catalytic) (Homo sapiens, UniProt P23458)
DYRK1B = DYRK1B (Homo sapiens, UniProt Q9Y463)
LTK = LTK (Homo sapiens, UniProt P29376)
STK33 = STK33 (Homo sapiens, UniProt Q9BYT3)
[6] = read-out: CPT-1-70-1 (1uM) % control
[7] = read-out: HYJ-2-002-1 (1uM) % control

MARK2, sequence (Q7KZI7 whole entry): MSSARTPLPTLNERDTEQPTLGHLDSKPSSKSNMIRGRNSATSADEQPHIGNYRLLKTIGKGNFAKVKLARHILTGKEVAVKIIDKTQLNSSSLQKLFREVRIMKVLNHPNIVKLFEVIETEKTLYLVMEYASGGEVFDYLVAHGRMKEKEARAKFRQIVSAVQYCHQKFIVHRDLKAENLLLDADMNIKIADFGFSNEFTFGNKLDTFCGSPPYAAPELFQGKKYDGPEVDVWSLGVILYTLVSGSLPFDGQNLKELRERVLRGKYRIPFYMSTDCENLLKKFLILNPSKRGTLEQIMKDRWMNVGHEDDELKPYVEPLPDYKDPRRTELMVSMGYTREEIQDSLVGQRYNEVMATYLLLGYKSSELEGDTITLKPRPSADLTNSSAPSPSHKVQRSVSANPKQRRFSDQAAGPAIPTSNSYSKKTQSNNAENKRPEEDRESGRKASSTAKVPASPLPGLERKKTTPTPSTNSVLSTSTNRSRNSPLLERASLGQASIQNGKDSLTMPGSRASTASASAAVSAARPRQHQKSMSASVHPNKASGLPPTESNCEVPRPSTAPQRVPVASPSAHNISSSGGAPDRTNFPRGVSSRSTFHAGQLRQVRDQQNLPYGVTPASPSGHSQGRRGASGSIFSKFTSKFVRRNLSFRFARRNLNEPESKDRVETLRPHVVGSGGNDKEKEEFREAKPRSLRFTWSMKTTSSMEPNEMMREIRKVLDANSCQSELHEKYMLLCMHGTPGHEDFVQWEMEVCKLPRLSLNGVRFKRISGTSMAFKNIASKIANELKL
LTK, sequence (P29376 whole entry): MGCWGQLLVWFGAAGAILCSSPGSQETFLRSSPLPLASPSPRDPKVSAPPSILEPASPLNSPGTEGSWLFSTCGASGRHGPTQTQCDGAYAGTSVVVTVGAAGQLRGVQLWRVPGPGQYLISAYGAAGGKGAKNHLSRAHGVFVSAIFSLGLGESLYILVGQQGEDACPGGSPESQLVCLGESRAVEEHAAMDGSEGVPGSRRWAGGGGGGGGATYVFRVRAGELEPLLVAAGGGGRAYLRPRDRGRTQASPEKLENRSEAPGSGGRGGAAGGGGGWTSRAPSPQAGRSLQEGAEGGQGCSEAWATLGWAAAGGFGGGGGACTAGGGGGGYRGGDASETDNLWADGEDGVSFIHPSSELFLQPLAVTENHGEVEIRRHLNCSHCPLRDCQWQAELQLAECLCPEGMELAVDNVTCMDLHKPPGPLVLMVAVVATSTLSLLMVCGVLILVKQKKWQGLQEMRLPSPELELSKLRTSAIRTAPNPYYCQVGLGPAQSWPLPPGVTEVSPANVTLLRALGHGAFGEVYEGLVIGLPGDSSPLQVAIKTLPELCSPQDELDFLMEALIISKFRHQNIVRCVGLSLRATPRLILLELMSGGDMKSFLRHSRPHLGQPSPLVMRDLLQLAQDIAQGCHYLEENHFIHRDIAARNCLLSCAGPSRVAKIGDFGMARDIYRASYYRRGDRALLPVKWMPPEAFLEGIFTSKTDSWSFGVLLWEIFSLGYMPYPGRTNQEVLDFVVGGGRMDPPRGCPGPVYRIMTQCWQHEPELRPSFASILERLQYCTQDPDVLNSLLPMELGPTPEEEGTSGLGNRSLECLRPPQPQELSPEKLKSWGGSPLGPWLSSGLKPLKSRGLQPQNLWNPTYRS
JNK3, sequence (P53779 whole entry): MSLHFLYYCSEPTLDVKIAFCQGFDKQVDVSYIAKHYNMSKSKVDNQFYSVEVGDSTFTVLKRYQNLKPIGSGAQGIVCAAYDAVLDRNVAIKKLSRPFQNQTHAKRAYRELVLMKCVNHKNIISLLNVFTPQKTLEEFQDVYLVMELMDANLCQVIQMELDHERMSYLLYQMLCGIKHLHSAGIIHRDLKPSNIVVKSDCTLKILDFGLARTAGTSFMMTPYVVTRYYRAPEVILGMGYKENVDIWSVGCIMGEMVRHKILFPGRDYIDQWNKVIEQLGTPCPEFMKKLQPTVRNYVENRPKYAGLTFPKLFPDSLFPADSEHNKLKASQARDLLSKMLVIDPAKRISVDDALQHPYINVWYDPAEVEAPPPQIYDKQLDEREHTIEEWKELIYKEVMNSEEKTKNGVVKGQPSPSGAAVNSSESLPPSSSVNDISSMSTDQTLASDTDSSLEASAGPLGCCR
JAK1(JH1domain-catalytic), sequence (P23458 whole entry): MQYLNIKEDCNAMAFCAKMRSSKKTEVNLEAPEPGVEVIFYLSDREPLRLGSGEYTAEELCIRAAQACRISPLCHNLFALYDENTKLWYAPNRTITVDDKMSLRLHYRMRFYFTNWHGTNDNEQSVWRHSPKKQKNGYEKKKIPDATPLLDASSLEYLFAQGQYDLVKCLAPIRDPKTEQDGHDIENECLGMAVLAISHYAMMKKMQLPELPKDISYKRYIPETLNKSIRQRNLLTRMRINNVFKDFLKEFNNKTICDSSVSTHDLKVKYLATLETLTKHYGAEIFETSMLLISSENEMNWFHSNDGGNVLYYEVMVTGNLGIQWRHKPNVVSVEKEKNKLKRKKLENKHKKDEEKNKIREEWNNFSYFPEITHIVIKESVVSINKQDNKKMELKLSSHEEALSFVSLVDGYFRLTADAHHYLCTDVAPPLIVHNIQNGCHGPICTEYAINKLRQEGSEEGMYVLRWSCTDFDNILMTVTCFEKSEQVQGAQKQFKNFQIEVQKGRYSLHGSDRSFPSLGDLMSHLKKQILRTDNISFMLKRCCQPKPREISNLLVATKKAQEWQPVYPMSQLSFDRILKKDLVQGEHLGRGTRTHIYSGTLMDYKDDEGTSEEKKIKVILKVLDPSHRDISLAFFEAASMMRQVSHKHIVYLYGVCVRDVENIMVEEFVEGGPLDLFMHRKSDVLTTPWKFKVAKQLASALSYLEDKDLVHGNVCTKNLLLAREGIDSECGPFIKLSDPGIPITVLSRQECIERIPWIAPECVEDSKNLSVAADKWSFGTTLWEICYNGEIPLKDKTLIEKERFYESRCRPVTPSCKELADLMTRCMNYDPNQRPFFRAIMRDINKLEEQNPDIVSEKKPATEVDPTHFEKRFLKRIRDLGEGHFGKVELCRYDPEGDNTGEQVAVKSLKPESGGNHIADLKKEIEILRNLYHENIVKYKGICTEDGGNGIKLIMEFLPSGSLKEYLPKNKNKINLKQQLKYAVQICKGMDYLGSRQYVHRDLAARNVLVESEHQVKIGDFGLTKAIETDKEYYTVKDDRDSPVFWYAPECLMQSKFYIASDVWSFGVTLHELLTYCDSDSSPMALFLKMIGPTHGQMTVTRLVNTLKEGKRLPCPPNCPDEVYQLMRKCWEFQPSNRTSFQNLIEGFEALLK
ITK, sequence (Q08881 whole entry): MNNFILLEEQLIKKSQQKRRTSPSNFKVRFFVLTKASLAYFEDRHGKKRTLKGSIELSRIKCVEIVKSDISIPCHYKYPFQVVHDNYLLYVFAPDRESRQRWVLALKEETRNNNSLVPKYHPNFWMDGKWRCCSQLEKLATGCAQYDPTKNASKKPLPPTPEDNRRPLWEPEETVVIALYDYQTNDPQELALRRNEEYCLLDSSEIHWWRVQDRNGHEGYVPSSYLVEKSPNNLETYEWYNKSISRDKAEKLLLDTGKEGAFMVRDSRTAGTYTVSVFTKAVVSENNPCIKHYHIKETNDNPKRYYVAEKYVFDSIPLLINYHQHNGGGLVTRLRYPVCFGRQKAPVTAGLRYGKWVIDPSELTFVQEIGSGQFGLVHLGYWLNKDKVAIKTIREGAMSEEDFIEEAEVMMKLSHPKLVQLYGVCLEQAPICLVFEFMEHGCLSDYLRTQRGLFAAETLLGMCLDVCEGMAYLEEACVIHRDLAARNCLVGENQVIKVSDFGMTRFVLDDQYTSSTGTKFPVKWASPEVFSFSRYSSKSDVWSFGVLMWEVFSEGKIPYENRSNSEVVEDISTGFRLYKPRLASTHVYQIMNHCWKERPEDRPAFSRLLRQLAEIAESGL
DCAMKL2, sequence (Q8N568 whole entry): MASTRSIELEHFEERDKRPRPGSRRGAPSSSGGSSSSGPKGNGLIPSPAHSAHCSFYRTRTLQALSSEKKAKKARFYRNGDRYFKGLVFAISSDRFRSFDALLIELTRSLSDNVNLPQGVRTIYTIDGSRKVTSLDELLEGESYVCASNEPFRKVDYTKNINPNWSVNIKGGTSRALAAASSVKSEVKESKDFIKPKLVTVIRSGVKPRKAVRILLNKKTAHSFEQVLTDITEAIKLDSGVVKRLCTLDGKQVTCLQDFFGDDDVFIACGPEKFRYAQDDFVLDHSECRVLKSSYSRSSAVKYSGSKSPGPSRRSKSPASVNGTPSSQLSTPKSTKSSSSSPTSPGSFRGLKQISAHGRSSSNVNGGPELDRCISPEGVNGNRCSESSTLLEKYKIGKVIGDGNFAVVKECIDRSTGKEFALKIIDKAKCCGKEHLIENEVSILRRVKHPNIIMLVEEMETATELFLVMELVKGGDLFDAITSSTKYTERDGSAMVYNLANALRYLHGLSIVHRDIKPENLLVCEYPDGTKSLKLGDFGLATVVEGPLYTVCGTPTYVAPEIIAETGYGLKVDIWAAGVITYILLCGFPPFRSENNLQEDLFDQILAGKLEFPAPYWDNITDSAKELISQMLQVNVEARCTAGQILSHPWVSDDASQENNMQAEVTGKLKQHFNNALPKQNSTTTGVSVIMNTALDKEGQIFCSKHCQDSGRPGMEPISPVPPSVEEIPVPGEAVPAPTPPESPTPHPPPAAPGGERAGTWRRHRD
CDK9, sequence (P50750 whole entry): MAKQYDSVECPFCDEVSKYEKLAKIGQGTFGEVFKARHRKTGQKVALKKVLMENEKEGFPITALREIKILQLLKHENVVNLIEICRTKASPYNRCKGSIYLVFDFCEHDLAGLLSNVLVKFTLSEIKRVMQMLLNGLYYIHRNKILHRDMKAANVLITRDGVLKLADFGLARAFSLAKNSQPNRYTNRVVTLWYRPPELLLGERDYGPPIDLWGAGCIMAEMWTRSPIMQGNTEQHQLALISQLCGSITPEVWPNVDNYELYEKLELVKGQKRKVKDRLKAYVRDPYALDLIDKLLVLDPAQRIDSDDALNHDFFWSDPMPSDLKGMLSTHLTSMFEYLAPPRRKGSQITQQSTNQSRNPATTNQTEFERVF

## CN1CCN(c2ccc(Nc3nc(Oc4ccc(NC(=O)CCl)cc4)c4cc[nH]c4n3)cc2)CC1 [CPT1-70-1]
BMPR2; [6]
  remaining activity at 1 µM: 100%
BRSK2; [6]
  remaining activity at 1 µM: 97%
CAMK1; [6]
  remaining activity at 1 µM: 57%
CAMK2D; [6]
  remaining activity at 1 µM: 100%
CAMKK2; [6]
  remaining activity at 1 µM: 68%
CDK9; [6]
  remaining activity at 1 µM: 90%
CDKL1; [6]
  remaining activity at 1 µM: 66%
CLK2; [6]
  remaining activity at 1 µM: 22%
CLK3; [6]
  remaining activity at 1 µM: 82%
CSNK1D; [6]
  remaining activity at 1 µM: 43%
CSNK1G2; [6]
  remaining activity at 1 µM: 0.7%
DAPK1; [6]
  remaining activity at 1 µM: 86%
DCAMKL2; [6]
  remaining activity at 1 µM: 92%
DDR2; [6]
  remaining activity at 1 µM: 100%
ITK; [6]
  remaining activity at 1 µM: 0.85%
JNK3; [6]
  remaining activity at 1 µM: 4.6%
LATS2; [6]
  remaining activity at 1 µM: 40%
LRRK2; [6]
  remaining activity at 1 µM: 7.5%
MARK2; [6]
  remaining activity at 1 µM: 10%
MEK5; [6]
  remaining activity at 1 µM: 18%
[1]; [6]
  remaining activity at 1 µM: 100%
ABL1-phosphorylated; [6]
  remaining activity at 1 µM: 51%
[2]; [6]
  remaining activity at 1 µM: 100%
[3]; [6]
  remaining activity at 1 µM: 100%
[4]; [6]
  remaining activity at 1 µM: 46%
[5]; [6]
  remaining activity at 1 µM: 77%
DYRK1B; [6]
  remaining activity at 1 µM: 79%
LTK; [6]
  remaining activity at 1 µM: 100%
STK33; read-out: CPT-1-70-1 (1μM) % control
  remaining activity at 1 µM: 10%

## CCN1CCN(Cc2ccc(NC(=O)c3ccc(C)c(CCc4cnc5[nH]ccc5c4OC)c3)cc2C(F)(F)F)CC1 [HYJ-2-002-1]
BMPR2; [7]
  remaining activity at 1 µM: 98%
BRSK2; [7]
  remaining activity at 1 µM: 91%
CAMK1; [7]
  remaining activity at 1 µM: 80%
CAMK2D; [7]
  remaining activity at 1 µM: 100%
CAMKK2; [7]
  remaining activity at 1 µM: 100%
CDK9; [7]
  remaining activity at 1 µM: 100%
CDKL1; [7]
  remaining activity at 1 µM: 94%
CLK2; [7]
  remaining activity at 1 µM: 85%
CLK3; [7]
  remaining activity at 1 µM: 88%
CSNK1D; [7]
  remaining activity at 1 µM: 73%
CSNK1G2; [7]
  remaining activity at 1 µM: 45%
DAPK1; [7]
  remaining activity at 1 µM: 98%
DCAMKL2; [7]
  remaining activity at 1 µM: 100%
DDR2; [7]
  remaining activity at 1 µM: 0.05%
ITK; [7]
  remaining activity at 1 µM: 75%
JNK3; [7]
  remaining activity at 1 µM: 75%
LATS2; [7]
  remaining activity at 1 µM: 98%
LRRK2; [7]
  remaining activity at 1 µM: 94%
MARK2; [7]
  remaining activity at 1 µM: 64%
MEK5; [7]
  remaining activity at 1 µM: 0.85%
[1]; [7]
  remaining activity at 1 µM: 0.1%
ABL1-phosphorylated; [7]
  remaining activity at 1 µM: 0.1%
[2]; [7]
  remaining activity at 1 µM: 0%
[3]; [7]
  remaining activity at 1 µM: 0%
[4]; [7]
  remaining activity at 1 µM: 9%
[5]; [7]
  remaining activity at 1 µM: 41%
DYRK1B; [7]
  remaining activity at 1 µM: 76%
LTK; [7]
  remaining activity at 1 µM: 89%
STK33; read-out: HYJ-2-002-1 (1μM) % control
  remaining activity at 1 µM: 66%
